Patent publication US9168259B2 (GRÜNENTHAL GMBH, priority 2010, dated 2015)

Target: T1, KCNQ2/3 channels (Homo sapiens, UniProt O43525+O43526)
T1 construct: expressed in transfected cells
Assay: Fluorescence assay using a voltage sensitive dye (fluorimetry)
Format: cell-based
Settings: CHO-K1 cells expressing KCNQ2/3; for Emax: CHO-K1, plateau effect relative to saturated retigabine (50 μM) = 100%, negative values = antagonistic, read-out: Fluorimetry % efficacy (retigabine = 100%); for EC50: IC50 where % efficacy is negative, read-out: Fluorimetry EC50/IC50

T1 sequence (O43526 whole entry): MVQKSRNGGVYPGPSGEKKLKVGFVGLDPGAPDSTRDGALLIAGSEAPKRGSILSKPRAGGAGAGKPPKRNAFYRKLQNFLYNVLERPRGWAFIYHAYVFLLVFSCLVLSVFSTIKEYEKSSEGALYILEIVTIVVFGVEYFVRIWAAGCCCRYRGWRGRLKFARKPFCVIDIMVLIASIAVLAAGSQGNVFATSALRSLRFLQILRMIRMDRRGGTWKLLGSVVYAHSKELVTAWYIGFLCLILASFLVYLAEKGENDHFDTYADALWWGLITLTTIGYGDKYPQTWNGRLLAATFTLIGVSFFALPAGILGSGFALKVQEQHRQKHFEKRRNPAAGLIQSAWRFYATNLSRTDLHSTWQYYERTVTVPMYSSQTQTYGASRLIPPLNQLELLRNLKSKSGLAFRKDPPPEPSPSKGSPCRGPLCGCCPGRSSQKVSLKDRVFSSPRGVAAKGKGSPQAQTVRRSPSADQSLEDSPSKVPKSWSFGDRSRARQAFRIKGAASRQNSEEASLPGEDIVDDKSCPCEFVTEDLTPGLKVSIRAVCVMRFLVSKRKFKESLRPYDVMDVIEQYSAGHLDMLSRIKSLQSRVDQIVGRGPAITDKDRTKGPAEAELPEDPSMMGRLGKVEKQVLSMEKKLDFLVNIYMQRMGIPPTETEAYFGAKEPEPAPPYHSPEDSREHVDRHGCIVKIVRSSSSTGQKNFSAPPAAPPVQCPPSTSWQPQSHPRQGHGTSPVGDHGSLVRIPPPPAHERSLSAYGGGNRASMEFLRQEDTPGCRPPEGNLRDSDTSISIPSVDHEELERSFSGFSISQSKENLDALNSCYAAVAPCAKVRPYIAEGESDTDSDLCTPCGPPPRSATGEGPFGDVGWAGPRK
T1 sequence (O43525 whole entry): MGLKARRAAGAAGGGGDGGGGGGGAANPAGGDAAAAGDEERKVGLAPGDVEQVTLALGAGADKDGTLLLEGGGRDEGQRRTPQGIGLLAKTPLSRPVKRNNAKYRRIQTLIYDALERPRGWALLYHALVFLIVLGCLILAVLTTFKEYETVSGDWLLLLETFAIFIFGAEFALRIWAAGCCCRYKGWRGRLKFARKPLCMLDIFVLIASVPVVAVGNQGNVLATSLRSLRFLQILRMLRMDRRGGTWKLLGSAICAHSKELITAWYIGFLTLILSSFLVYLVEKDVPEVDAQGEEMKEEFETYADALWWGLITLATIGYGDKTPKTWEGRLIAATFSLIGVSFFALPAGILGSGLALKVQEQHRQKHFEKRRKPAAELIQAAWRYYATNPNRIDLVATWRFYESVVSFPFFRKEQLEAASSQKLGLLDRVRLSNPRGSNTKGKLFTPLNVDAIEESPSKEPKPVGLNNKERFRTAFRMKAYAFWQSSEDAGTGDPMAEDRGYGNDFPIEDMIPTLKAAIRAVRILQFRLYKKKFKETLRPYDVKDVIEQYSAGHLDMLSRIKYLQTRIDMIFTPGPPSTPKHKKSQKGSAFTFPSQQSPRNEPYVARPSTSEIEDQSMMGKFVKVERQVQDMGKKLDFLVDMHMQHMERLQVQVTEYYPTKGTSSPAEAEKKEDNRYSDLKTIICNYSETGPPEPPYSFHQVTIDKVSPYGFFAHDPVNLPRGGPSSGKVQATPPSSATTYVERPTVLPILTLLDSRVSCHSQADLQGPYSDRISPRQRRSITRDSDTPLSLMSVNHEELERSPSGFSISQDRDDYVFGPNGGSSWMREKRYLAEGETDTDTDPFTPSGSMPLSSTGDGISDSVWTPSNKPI

| Compound | Emax [%] | EC50 [nM] |
| --- | --- | --- |
| CCCCOc1nc(N2CCOCC2)cc(C)c1C(=O)NCc1cccc(F)c1 [Example 110, 2-Butoxy-N-[(3-fluorophenyl)-methyl]-4-methyl-6-morpholin-4-yl-pyridine-3-carboxylic acid amide] | 163 | 71 |
| CCSc1nc(N2CCOCC2)cc(C)c1C(=O)NCCCc1cccnc1 [Example 114, 2-Ethylsulfanyl-4-methyl-6-morpholin-4-yl-N-(3-pyridin-3-yl-propyl)-pyridine-3-carboxylic acid amide] | 126 | 9380 |
| CCSc1nc(N2CCOCC2)cc(C)c1C(=O)NCCCc1ccncc1 [Example 115, 2-Ethylsulfanyl-4-methyl-6-morpholin-4-yl-N-(3-pyridin-4-yl-propyl)-pyridine-3-carboxylic acid amide] | 96 | 7970 |
| CCSc1nc(N2CCOCC2)cc(C)c1C(=O)NCCCCC(C)(C)C [Example 116, N-(5,5-Dimethyl-hexyl)-2-ethylsulfanyl-4-methyl-6-morpholin-4-yl-pyridine-3-carboxylic acid amide] | 210 | 131 |
| COc1nc(N2CCOCC2)cc(C)c1C(=O)NCc1ccc(C(F)(F)F)cc1 [Example 117, 2-Methoxy-4-methyl-6-morpholin-4-yl-N-[[4-(trifluoromethyl)-phenyl]-methyl]pyridine-3-carboxylic acid amide] | 128 | 268 |
| CCSc1nc(N2CCOCC2)cc(C)c1C(=O)NCc1ccc(Cl)cc1 [Example 124, N-[(4-Chlorophenyl)-methyl]-2-ethylsulfanyl-4-methyl-6-morpholin-4-yl-pyridine-3-carboxylic acid amide] | 149 | 82 |
| CCSc1nc(N2CCOCC2)cc(C)c1C(=O)NCc1cccc(Cl)c1 [Example 125, N-[(3-Chlorophenyl)-methyl]-2-ethylsulfanyl-4-methyl-6-morpholin-4-yl-pyridine-3-carboxylic acid amide] | 152 | 87 |
| CCSc1nc(N2CCOCC2)cc(C)c1C(=O)NCCCc1ccccc1F [Example 129, 2-Ethylsulfanyl-N-[3-(2-fluorophenyl)-propyl]-4-methyl-6-morpholin-4-yl-pyridine-3-carboxylic acid amide] | 206 | 221 |
| CCSc1nc(N2CCOCC2)cc(C)c1C(=O)NCc1cccc(OC(F)(F)F)c1 [Example 130, 2-Ethylsulfanyl-4-methyl-6-morpholin-4-yl-N-[[3-(trifluoromethyloxy)-phenyl]methyl]-pyridine-3-carboxylic acid amide] | 148 | 74 |
| CCOc1nc(N2CCOCC2)cc(C)c1C(=O)NCc1ccc(C(F)(F)F)cc1 [Example 132, 2-Ethoxy-4-methyl-6-morpholin-4-yl-N-[[4-(trifluoromethyl)-phenyl]-methyl]pyridine-3-carboxylic acid amide] | 122 | 110 |
| CCOc1nc(N2CCOCC2)cc(C)c1C(=O)NCCCC(F)(F)F [Example 133, 2-Ethoxy-4-methyl-6-morpholin-4-yl-N-(4,4,4-trifluoro-butyl)-pyridine-3-carboxylic acid amide] | 235 | 392 |
| CCSc1nc(N2CCOCC2)cc(C)c1C(=O)NCc1ccc2c(c1)OCO2 [Example 134, N-(1,3-Benzodioxol-5-yl-methyl)-2-ethylsulfanyl-4-methyl-6-morpholin-4-yl-pyridine-3-carboxylic acid amide] | 159 | 1140 |
| CCSc1nc(N2CCOCC2)cc(C)c1C(=O)NCc1ccc(C(F)(F)F)cc1F [Example 135, 2-Ethylsulfanyl-N-[[2-fluoro-4-(trifluoromethyl)-phenyl]-methyl]-4-methyl-6-morpholin-4-yl-pyridine-3-carboxylic acid amide] | 43 | 54 |
| CCSc1nc(N2CCOCC2)cc(C)c1C(=O)NCc1ccc(OC)cc1 [Example 137, 2-Ethylsulfanyl-N-[(4-methoxyphenyl)-methyl]-4-methyl-6-morpholin-4-yl-pyridine-3-carboxylic acid amide] | 151 | 1070 |
| COc1nc(N2CCOCC2)cc(C)c1C(=O)NCCCC(F)(F)F [Example 140, 2-Methoxy-4-methyl-6-morpholin-4-yl-N-(4,4,4-trifluoro-butyl)-pyridine-3-carboxylic acid amide] | 227 | 1120 |
| CCSc1nc(N2CCOCC2)cc(C)c1C(=O)NCCCC1CC1 [Example 141, N-(3-Cyclopropyl-propyl)-2-ethylsulfanyl-4-methyl-6-morpholin-4-yl-pyridine-3-carboxylic acid amide] | 167 | 242 |
| CCSc1nc(N2CCOCC2)cc(C)c1C(=O)NCc1ccc(C(F)(F)F)c(F)c1 [Example 142, 2-Ethylsulfanyl-N-[[3-fluoro-4-(trifluoromethyl)-phenyl]-methyl]-4-methyl-6-morpholin-4-yl-pyridine-3-carboxylic acid amide] | 125 | 38 |

Next, values leading:

| Emax [%] | EC50 [nM] | Compound |
| --- | --- | --- |
| 153 | 109 | CCCOc1nc(N2CCOCC2)cc(C)c1C(=O)NCc1cccc(F)c1 [Example 111, N-[(3-Fluorophenyl)-methyl]-4-methyl-6-morpholin-4-yl-2-propoxy-pyridine-3-carboxylic acid amide] |
| 130 | 2740 | CCSc1nc(N2CC(=O)C2)cc(C)c1C(=O)NCc1cccc(F)c1 [Example 112, 2-Ethylsulfanyl-N-[(3-fluorophenyl)-methyl]-4-methyl-6-(3-oxo-azetidin-1-yl)-pyridine-3-carboxylic acid amide] |
| 192 | 212 | CCSc1nc(N2CCOCC2)cc(C)c1C(=O)NCCCc1cccc(F)c1 [Example 113, 2-Ethylsulfanyl-N-[3-(3-fluorophenyl)-propyl]-4-methyl-6-morpholin-4-yl-pyridine-3-carboxylic acid amide] |
| 3 | – | CCSc1nc(N(C)Cc2ccncc2)cc(C)c1C(=O)NCc1cccc(F)c1 [Example 118, 2-Ethylsulfanyl-N-[(3-fluorophenyl)-methyl]-4-methyl-6-[methyl-(pyridin-4-yl-methyl)-amino]-pyridine-3-carboxylic acid amide] |
| 91 | 2420 | CCSc1nc(N(C)Cc2cccnc2)cc(C)c1C(=O)NCc1cccc(F)c1 [Example 119, 2-Ethylsulfanyl-N-[(3-fluorophenyl)-methyl]-4-methyl-6-[methyl-(pyridin-3-yl-methyl)-amino]-pyridine-3-carboxylic acid amide] |
| 10 | – | CCSc1nc(N(C)C(=O)c2ccc(F)cc2)cc(C)c1C(=O)NCc1cccc(F)c1 [Example 120, 2-Ethylsulfanyl-6-[(4-fluoro-benzoyl)-methyl-amino]-N-[(3-fluorophenyl)-methyl]-4-methyl-pyridine-3-carboxylic acid amide] |
| 35 | – | CCSc1nc(N(C)Cc2ccccn2)cc(C)c1C(=O)NCc1cccc(F)c1 [Example 121, 2-Ethylsulfanyl-N-[(3-fluorophenyl)-methyl]-4-methyl-6-[methyl-(pyridin-2-yl-methyl)-amino]-pyridine-3-carboxylic acid amide] |
| 67 | – | CCSc1nc(N(C)C(C)=O)cc(C)c1C(=O)NCc1cccc(F)c1 [Example 123, 6-(Acetyl-methyl-amino)-2-ethylsulfanyl-N-[(3-fluorophenyl)-methyl]-4-methyl-pyridine-3-carboxylic acid amide] |
| 145 | 2090 | CCSc1nc(N(CCOC)CCOC)cc(C)c1C(=O)NCc1cccc(F)c1 [Example 126, 6-[Bis(2-methoxy-ethyl)-amino]-2-ethylsulfanyl-N-[(3-fluorophenyl)-methyl]-4-methyl-pyridine-3-carboxylic acid amide] |
| 238 | 385 | CCN(C)c1nc(N2CCOCC2)cc(C)c1C(=O)NCc1cccc(F)c1 [Example 127, 2-(Ethyl-methyl-amino)-N-[(3-fluorophenyl)-methyl]-4-methyl-6-morpholin-4-yl-pyridine-3-carboxylic acid amide] |
| 142 | 785 | CCSc1nc(N(C)CCCOC)cc(C)c1C(=O)NCc1cccc(F)c1 [Example 128, 2-Ethylsulfanyl-N-[(3-fluorophenyl)-methyl]-6-(3-methoxy-propyl-methyl-amino)-4-methyl-pyridine-3-carboxylic acid amide] |
| 137 | 1250 | CCSc1nc(N2CCOCC2)cc(C)c1C(=O)NCc1cccc(COC)c1 [Example 131, 2-Ethylsulfanyl-N-[[3-(methoxymethyl)-phenyl]-methyl]-4-methyl-6-morpholin-4-yl-pyridine-3-carboxylic acid amide] |
| 171 | 108 | CCSc1nc(N2CCCCCC2)cc(C)c1C(=O)NCc1cccc(F)c1 [Example 136, 6-(Azepan-1-yl)-2-ethylsulfanyl-N-[(3-fluorophenyl)-methyl]-4-methyl-pyridine-3-carboxylic acid amide] |
| 125 | 170 | CCSc1nc(N2CCO[C@@H](C)C2)cc(C)c1C(=O)NCc1cccc(F)c1 [Example 138, 2-Ethylsulfanyl-N-[(3-fluorophenyl)-methyl]-4-methyl-6-[(2S)-2-methyl-morpholin-4-yl]-pyridine-3-carboxylic acid amide] |
| 146 | 770 | CCSc1nc(N2CCO[C@H](C)C2)cc(C)c1C(=O)NCc1cccc(F)c1 [Example 139, 2-Ethylsulfanyl-N-[(3-fluorophenyl)-methyl]-4-methyl-6-[(2R)-2-methyl-morpholin-4-yl]-pyridine-3-carboxylic acid amide] |
| 28 | – | CCSc1nc(N2CCNC(=O)C2)cc(C)c1C(=O)NCc1cccc(F)c1 [Example 143, 2-Ethylsulfanyl-N-[(3-fluorophenyl)-methyl]-4-methyl-6-(3-oxo-piperazin-1-yl)-pyridine-3-carboxylic acid amide] |
